In US20260199350A1, “FLAVONES, QUINOLINONES, QUINAZOLINONES, AND AURONES, AND USES IN CK2-MEDIATED DISEASES” (Salk Institute for Biological Studies, priority 2022, published 2026):
In brackets after ≈: the same amount, converted by molar mass. Read-outs that look alike come from different tables or passages of the source.

Key:
CK2A2 = molecular target: T1, CK2A2 (Homo sapiens, UniProt P19784); assay: Radiometric kinase assay (Eurofins), CK2A2; type: biochemical; settings: read-out: CK2A2 RAD IC50
T1 construct: purchased Eurofins
T1 sequence (P19784 whole entry): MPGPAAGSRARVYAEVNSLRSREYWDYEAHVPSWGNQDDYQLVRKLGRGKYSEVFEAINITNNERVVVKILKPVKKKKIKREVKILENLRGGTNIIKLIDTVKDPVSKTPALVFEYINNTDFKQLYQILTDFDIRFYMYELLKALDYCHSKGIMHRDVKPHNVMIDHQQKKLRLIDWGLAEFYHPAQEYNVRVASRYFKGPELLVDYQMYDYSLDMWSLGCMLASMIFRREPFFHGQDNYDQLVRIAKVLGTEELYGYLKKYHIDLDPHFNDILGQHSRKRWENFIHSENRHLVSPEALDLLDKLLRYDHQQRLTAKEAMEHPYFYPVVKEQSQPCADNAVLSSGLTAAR
Source text: (§1) • ^1Radiometric kinase assay from Eurofins. Performed in astrocytes with a Promega Lumit IL-6 kit.

Aqueous solubility = type: physicochemical; settings: read-out: Aqueous Solubility
IL-6 secretion = IL-6 secretion assay in astrocytes (Promega Lumit IL-6 kit); type: cell-based, human; settings: Homo sapiens, Astrocyte, read-out: IL6-Inhib.
Experimental: IL-6 secretion assay. HCAs were plated at 20,000 cells per well in white clear bottom 96-well plates. Two to three days later, media was removed and replaced with media containing 10 ng/mL IL1B and compound dilution series. Five hours later, plates were processed using the Lumit IL-6 Assay Kit (Promega W6030) according to the manufacturer's instructions.
• ^1Radiometric kinase assay from Eurofins. Performed in astrocytes with a Promega Lumit IL-6 kit. A series of halogenated flavones was generated and assayed (Table 3).

CK2A1 = molecular target: T2, CK2A1 (Homo sapiens, UniProt P68400); assay: Radiometric kinase assay (Eurofins), CK2A1; type: biochemical; settings: read-out: CK2A1 RAD IC50
T2 construct: purchased Eurofins
T2 sequence (P68400 whole entry): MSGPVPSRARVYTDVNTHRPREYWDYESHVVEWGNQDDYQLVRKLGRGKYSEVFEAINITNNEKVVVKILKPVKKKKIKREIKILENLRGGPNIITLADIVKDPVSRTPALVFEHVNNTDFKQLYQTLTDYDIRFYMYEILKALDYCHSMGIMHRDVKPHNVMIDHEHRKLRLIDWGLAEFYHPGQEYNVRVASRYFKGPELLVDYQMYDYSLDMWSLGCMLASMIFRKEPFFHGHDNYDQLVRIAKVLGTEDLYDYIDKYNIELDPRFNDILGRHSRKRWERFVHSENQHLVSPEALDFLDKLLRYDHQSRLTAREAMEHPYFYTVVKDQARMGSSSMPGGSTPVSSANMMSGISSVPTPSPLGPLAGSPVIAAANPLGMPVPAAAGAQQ
Source text: FIGS. 4A-4F characterize flavones for in vitro and in-cell CK2 inhibition. […] Representative of two independent experiments. […] Nonlinear fit was used to calculate IC50. […] Nonlinear fit was used to calculate IC50. […] Nonlinear fit was used to calculate IC50. […] Normalized to DMSO, data are representative of three independent experiments.
as §1

[1] = aqueous (not further specified), Table 3
[2] = aqueous medium (not further specified), Table 8

| Structure (SMILES) | IC50 (CK2A2; Table 3, halogenated flavones) [nM] | solubility (Aqueous solubility; [1]) [µM] | IC50 (IL-6 secretion; Table 3) [nM] | IC50 (CK2A1; Table 3, halogenated flavones) [nM] | IC50 (CK2A2; Table 11, aurones) [nM] | solubility (Aqueous solubility; Table 11) [µM] | IC50 (IL-6 secretion; Table 11) [nM] | IC50 (CK2A1; Table 11, aurones) [nM] | other results |
| --- | --- | --- | --- | --- | --- | --- | --- | --- | --- |
| O=c1cc(-c2ccc(O)c(I)c2)oc2c(Br)cc(Br)cc12 [JKT.724A] | 7 | 11.2 (≈ 5.85 µg/mL) | 3800 | 19 | – | – | – | – | – |
| O=c1cc(-c2ccc(O)c(Cl)c2)oc2c(Cl)cc(Cl)cc12 [JKT.725A] | 12 | 39.9 (≈ 13.6 µg/mL) | 4800 | 15 | – | – | – | – | – |
| O=C1/C(=C/c2ccc(O)c(Cl)c2)Oc2c(Br)cc(Br)cc21 [JKT.726A] | – | – | – | – | 26 | 7.8 (≈ 3.36 µg/mL) | 3400 | 44 | – |
| O=C1/C(=C/c2ccc(O)cc2Cl)Oc2c(Br)cc(Br)cc21 [JKT.727A] | – | – | – | – | > 5000 | 73.7 (≈ 31.7 µg/mL) | 4700 | > 5000 | – |
| O=C1/C(=C/c2ccc(O)c(I)c2)Oc2c(Br)cc(Br)cc21 [JKT.728A] | – | – | – | – | 70 | 17.7 (≈ 9.24 µg/mL) | 1700 | 81 | – |
| O=c1[nH]c(-c2ccc(O)c(Br)c2)nc2c(Br)cc(Br)cc12 [JKT.734C] | – | – | – | – | – | – | – | – | IC50 (CK2A2; Table 8, quinazolinones): 42 nM; solubility (Aqueous solubility; [2]): > 200 µM; IC50 (IL-6 secretion; Table 8): > 10000 nM; IC50 (CK2A1; Table 8, quinazolinones): 24 nM |
| COc1cc(-c2cc(=O)c3cc(Br)cc(Br)c3[nH]2)ccc1O [JKT.736A] | – | – | – | – | – | – | – | – | IC50 (CK2A2; Table 6, quinolinones): 15 nM; solubility (Aqueous solubility; Table 6): 10 µM (≈ 4.25 µg/mL); IC50 (IL-6 secretion; Table 6): 3900 nM; IC50 (CK2A1; Table 6, quinolinones): 22 nM |
| O=c1cc(-c2ccc(O)c(Br)c2)oc2c(Br)cccc12 [JKT.744B] | 17 | 5 (≈ 1.98 µg/mL) | 3700 | 13 | – | – | – | – | – |
| COc1c(Br)cc2c(=O)cc(-c3ccc(O)c(Br)c3)oc2c1Br [JKT.745A] | 11 | > 200 | 3000 | 20 | – | – | – | – | – |
| COc1c(Br)cc2c(=O)cc(-c3ccc(O)c(Cl)c3)oc2c1Br [JKT.748A] | 9 | 24.3 (≈ 11.2 µg/mL) | 3900 | 24 | – | – | – | – | – |
| O=c1cc(-c2ccc(O)c(Cl)c2)oc2c(Br)cccc12 [JKT.749A] | 18 | 36.5 (≈ 12.8 µg/mL) | 4800 | 11 | – | – | – | – | – |
| COc1c(Br)cc2c(=O)cc(-c3ccc(O)c(C(F)(F)F)c3)oc2c1Br [JKT.750A] | 466 | 124 (≈ 61.5 µg/mL) | 2200 | 580 | – | – | – | – | – |
| O=c1cc(-c2ccc(O)c(C(F)(F)F)c2)oc2c(Br)cccc12 [JKT.751A] | 637 | 4 (≈ 1.54 µg/mL) | 5000 | 635 | – | – | – | – | – |
| COc1c(Br)cc2c(=O)cc(-c3cc(F)c(O)c(F)c3)oc2c1Br [JKT.753A] | 1850 | 109 (≈ 50.5 µg/mL) | > 10000 | > 5000 | – | – | – | – | – |
| O=C1/C(=C/c2ccc(O)cc2Br)Oc2c(Br)cc(Br)cc21 [JKT.758A] | – | – | – | – | > 5000 | 2.7 (≈ 1.28 µg/mL) | 3000 | > 5000 | – |
| COc1c(Br)cc2c(c1Br)O/C(=C\c1ccc(O)c(Br)c1)C2=O [JKT.759A] | – | – | – | – | 44 | 3.6 (≈ 1.82 µg/mL) | 2300 | 57 | – |

| Structure (SMILES) | IC50 (CK2A2; Table 3, halogenated flavones) [nM] | solubility (Aqueous solubility; [1]) [µM] | IC50 (IL-6 secretion; Table 3) [nM] | IC50 (CK2A1; Table 3, halogenated flavones) [nM] | IC50 (CK2A2; Table 11, aurones) [nM] | solubility (Aqueous solubility; Table 11) [µM] | IC50 (IL-6 secretion; Table 11) [nM] | IC50 (CK2A1; Table 11, aurones) [nM] | other results |
| --- | --- | --- | --- | --- | --- | --- | --- | --- | --- |
| COc1c(Br)cc2c(c1Br)O/C(=C\c1ccc(O)cc1Br)C2=O [JKT.760A] | – | – | – | – | > 5000 | 184 (≈ 92.7 µg/mL) | 9400 | > 5000 | – |
| COc1c(Br)cc2c(c1Br)O/C(=C\c1ccc(O)c(Cl)c1)C2=O [JKT.761A] | – | – | – | – | 48 | 120 (≈ 55.2 µg/mL) | 2500 | 67 | – |
| COc1c(Br)cc2c(c1Br)O/C(=C\c1ccc(O)cc1Cl)C2=O [JKT.762A] | – | – | – | – | > 5000 | 58.6 (≈ 27 µg/mL) | 4400 | > 5000 | – |
| COc1c(Br)cc2c(c1Br)O/C(=C\c1ccc(O)c(C(F)(F)F)c1)C2=O [JKT.763A] | – | – | – | – | 627 | 7.9 (≈ 3.9 µg/mL) | 2700 | 598 | – |
| COc1cc(/C=C2\Oc3c(cc(Br)c(OC)c3Br)C2=O)ccc1O [JKT.764A] | – | – | – | – | 383 | < 0.01 | 12000 | 521 | – |
| COc1c(Br)cc2c(c1Br)O/C(=C\c1ccc(C(=O)O)cc1)C2=O [JKT.765A] | – | – | – | – | 199 | > 200 | 15000 | 2460 | – |
| O=c1[nH]c(-c2ccc(O)c(Cl)c2)nc2c(Br)cc(Br)cc12 [JKT.772A] | – | – | – | – | – | – | – | – | IC50 (CK2A2; Table 8, quinazolinones): 72 nM; solubility (Aqueous solubility; [2]): < 0.01 µM; IC50 (IL-6 secretion; Table 8): 11000 nM; IC50 (CK2A1; Table 8, quinazolinones): 23 nM |
| O=c1[nH]c(-c2cc(Cl)c(O)c(Cl)c2)nc2c(Br)cc(Br)cc12 [JKT.773B] | – | – | – | – | – | – | – | – | IC50 (CK2A2; Table 8, quinazolinones): 276 nM; solubility (Aqueous solubility; [2]): 24.1 µM (≈ 11.2 µg/mL); IC50 (IL-6 secretion; Table 8): > 10000 nM; IC50 (CK2A1; Table 8, quinazolinones): 243 nM |
| O=c1[nH]c(-c2cc(F)c(O)c(F)c2)nc2c(Br)cc(Br)cc12 [JKT.774A] | – | – | – | – | – | – | – | – | IC50 (CK2A2; Table 8, quinazolinones): 1040 nM; solubility (Aqueous solubility; [2]): 152 µM (≈ 65.5 µg/mL); IC50 (IL-6 secretion; Table 8): > 10000 nM; IC50 (CK2A1; Table 8, quinazolinones): 818 nM |
| O=c1[nH]c(-c2ccc(O)c(C(F)(F)F)c2)nc2c(Br)cc(Br)cc12 [JKT.775A] | – | – | – | – | – | – | – | – | IC50 (CK2A2; Table 8, quinazolinones): 2480 nM; solubility (Aqueous solubility; [2]): 17.9 µM (≈ 8.31 µg/mL); IC50 (IL-6 secretion; Table 8): > 10000 nM; IC50 (CK2A1; Table 8, quinazolinones): 370 nM |
| O=c1cc(-c2ccc(O)c(Br)c2)oc2c(Cl)cccc12 [JKT.777A] | 21 | 14 (≈ 4.92 µg/mL) | 10300 | 20 | – | – | – | – | – |
| O=c1cc(-c2ccc(O)c(Br)c2)oc2ccc(Cl)cc12 [JKT.778A] | 78 | 15.1 (≈ 5.31 µg/mL) | 7400 | 115 | – | – | – | – | – |
| COc1ccc2c(=O)cc(-c3ccc(O)c(Br)c3)oc2c1Br [JKT.780A] | 25 | < 0.01 | > 10000 | 9 | – | – | – | – | – |
| COc1ccc2c(=O)cc(-c3ccc(O)c(C(F)(F)F)c3)oc2c1Br [JKT.786A] | 1710 | < 0.01 | > 10000 | 2480 | – | – | – | – | – |
| COc1ccc2c(=O)cc(-c3ccc(O)c(Cl)c3)oc2c1Br [JKT.787A] | 16 | < 0.01 | 7700 | 24 | – | – | – | – | – |
